Reference: patent publication US20220324835A1 (Nurix Therapeutics, Inc., priority 2018, published 2022)
pIC50: −log10 of the molar value.

Assays:
Cbl-b [1] = target: T1, Cbl-b (Homo sapiens, UniProt Q13191); assay: Cbl-b inhibition assay (Cbl-b activity assay, FRET, Biological Example 1; 100 mM NaCl, 60 nM Src kinase); assay type: biochemical; details: upper bound stated in text lists; read-out: IC50 values in the Cbl-b inhibition assay of Biological Example 1
How it was run: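 FRET read-out: loss of signal marks inhibition. Mix = biotin-Avi-Cbl-b (N-term), Src kinase, UbcH5B-Ub(Bodipy-FL, irreversible conjugate), streptavidin-Tb, assay buffer.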

T-cell [2] = assay: CD25 cell surface staining on T-cells stimulated with anti-CD3 antibody alone (Biological Example 2); assay type: cell-based, human; details: T-cell, read-out: CD25 staining Anti-CD3 stimulation; for fold induction at 1 µM: 1 μM Cbl-b inhibitor; for fold induction at 8 µM: 8 μM Cbl-b inhibitor
T-cell [3] = assay: IL-2 secretion from T-cells co-stimulated with anti-CD3 and anti-CD28 antibody (Biological Example 2); assay type: cell-based, human; details: Homo sapiens, T-cell, read-out: IL-2 secretion Anti-CD3/Anti-CD28 stimulation; for fold induction at 0.3 µM: 0.3 μM Cbl-b inhibitor; for fold induction at 1 µM: 1 μM Cbl-b inhibitor; for fold induction at 4 µM: 4 μM Cbl-b inhibitor
How it was run: (§1)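 Values are fold-change over baseline: readings (IL-2 release, CD25 staining) from inhibitor-treated T-cells divided against untreated cells […]. No detailed procedure stated.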

T-cell [4] = assay: IL-2 secretion from T-cells stimulated with anti-CD3 antibody alone (Biological Example 2); assay type: cell-based, human; details: T-cell, read-out: IL-2 secretion Anti-CD3 stimulation; for fold induction at 1 µM: 1 μM Cbl-b inhibitor; for fold induction at 8 µM: 8 μM Cbl-b inhibitor
Cbl-b [5] = target: T1, Cbl-b; assay: Cbl-b activity assay (Cbl-b inhibition assay), TR-FRET of Cbl-b interaction with UbcH5B-Ub; assay type: biochemical; details: assay buffer with 100 mM NaCl, 60 nM Src kinase; read-out: Cbl-b activity IC50
How it was run: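 Compound-treated Cbl-b was incubated 1.5 h with Src kinase (60 nM final; 30 nM for asterisked values, which also used 50 mM instead of 100 mM NaCl), 1 mM ATP and 5 mM MgCl2. Binding to fluorescent Ub-loaded UbcH5B (C85K mutant) was then read by TR-FRET after 1 h more.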

T-cell [6] = assay: CD25 cell surface staining on T-cells co-stimulated with anti-CD3 and anti-CD28 antibody (Biological Example 2); assay type: cell-based, human; details: Homo sapiens, T-cell, read-out: CD25 staining Anti-CD3/Anti-CD28 stimulation; for fold induction at 0.3 µM: 0.3 μM Cbl-b inhibitor; for fold induction at 1 µM: 1 μM Cbl-b inhibitor; for fold induction at 4 µM: 4 μM Cbl-b inhibitor
How it was run: as §1

[7] = Homo sapiens, fold change over baseline (anti-CD3/anti-CD28 stimulated T-cells without inhibitor)
[8] = fold change over baseline (anti-CD3/anti-CD28 stimulated T-cells without inhibitor)
[9] = fold change over baseline, primary human total T-cells

T1 sequence (Q13191 36-427): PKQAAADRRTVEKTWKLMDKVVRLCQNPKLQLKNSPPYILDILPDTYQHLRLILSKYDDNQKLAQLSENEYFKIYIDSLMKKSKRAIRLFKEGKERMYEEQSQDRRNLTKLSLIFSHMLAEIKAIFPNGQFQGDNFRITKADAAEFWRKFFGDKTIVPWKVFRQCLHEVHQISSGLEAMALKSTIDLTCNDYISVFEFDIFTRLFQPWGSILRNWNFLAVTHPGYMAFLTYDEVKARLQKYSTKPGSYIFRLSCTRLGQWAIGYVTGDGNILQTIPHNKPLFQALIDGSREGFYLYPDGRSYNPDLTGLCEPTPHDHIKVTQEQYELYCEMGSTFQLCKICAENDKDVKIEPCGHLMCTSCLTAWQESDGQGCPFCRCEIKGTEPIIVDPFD

| SMILES | pIC50 (Cbl-b [1]) | fold induction at 1 µM (T-cell [2]; [7]) | fold induction at 0.3 µM (T-cell [3]; [8]) | fold induction at 1 µM (T-cell [3]; [8]) | fold induction at 1 µM (T-cell [4]; [7]) | pIC50 (Cbl-b [5]) | fold induction at 0.3 µM (T-cell [6]; [8]) | fold induction at 1 µM (T-cell [6]; [8]) | fold induction at 1 µM (T-cell [2]; [9]) | fold induction at 8 µM (T-cell [2]; [9]) | fold induction at 0.3 µM (T-cell [3]; [9]) | fold induction at 1 µM (T-cell [3]; [9]) | fold induction at 4 µM (T-cell [3]; [9]) | fold induction at 1 µM (T-cell [4]; [9]) | fold induction at 8 µM (T-cell [4]; [9]) | fold induction at 0.3 µM (T-cell [6]; [9]) | fold induction at 1 µM (T-cell [6]; [9]) | fold induction at 4 µM (T-cell [6]; [9]) |
| --- | --- | --- | --- | --- | --- | --- | --- | --- | --- | --- | --- | --- | --- | --- | --- | --- | --- | --- |
| Cc1cc2c(c(C3CC3)n1)CN(c1cccc(C3(Cc4nncn4C)COC3)c1)C2=O [Example 692, 4-cyclopropyl-6-methyl-2-(3-(3-((4-methyl-4H-1,2,4-triazol-3-yl)methyl)oxetan-3-yl)phenyl)-2,3-dihydro-1H-pyrrolo[3,4-c]pyridin-1-one] | ≥ 7.00 | 0.801 to 1 | 1.01 to 2.5 | 2.51 to 5 | 0.051 to 0.1 | > 7.00 | 1.01 to 1.3 | 1.31 to 1.5 | – | – | – | – | – | – | – | – | – | – |
| Cc1cc(C(=O)Nc2cccc(C3(C(F)(F)c4nncn4C)COC3)c2)nc(C2CC2)n1 [Example 676, 2-cyclopropyl-N-(3-(3-(difluoro(4-methyl-4H-1,2,4-triazol-3-yl)methyl)oxetan-3-yl)phenyl)-6-methylpyrimidine-4-carboxamide] | ≥ 7.00 | 0.801 to 1 | 2.51 to 5 | 5 to 7.5 | 0.101 to 0.15 | > 7.00 | 1.01 to 1.3 | 1.31 to 1.5 | – | – | – | – | – | – | – | – | – | – |
| CC(c1cc2c(c(C3CC3)n1)CN(c1cccc(C3(Cc4nncn4C)COC3)c1)C2=O)N1CCCCC1 (stereo not drawn) [Example 587, 4-Cyclopropyl-2-(3-(3-((4-methyl-4H-1,2,4-triazol-3-yl)methyl)oxetan-3-yl)phenyl)-6-(l-(piperidin-1-yl)ethyl)-2,3-dihydro-1H-pyrrolo[3,4-c]pyridin-1-one] | ≥ 7.00 | 0.601 to 0.8 | 5 to 7.5 | > 7.5 | > 0.201 | > 7.00 | > 1.76 | > 1.76 | – | – | – | – | – | – | – | – | – | – |
| Cn1cnnc1CC1(c2cccc(N3Cc4c(cc(CN5Cc6ccccc6C5)cc4C(F)(F)F)C3=O)c2)COC1 [Example 654, 6-(isoindolin-2-ylmethyl)-2-(3-(3-((4-methyl-4H-1,2,4-triazol-3-yl)methyl)oxetan-3-yl)phenyl)-4-(trifluoromethyl)isoindolin-1-one] | ≥ 7.00 | > 1 | 5 to 7.5 | > 7.5 | > 0.201 | > 7.00 | 1.31 to 1.5 | 1.31 to 1.5 | – | – | – | – | – | – | – | – | – | – |
| CCOC1CCCN(Cc2cc3c(c(C(F)(F)F)c2)CN(c2cccc(C4(Cc5nncn5C)COC4)c2)C3=O)C1 (centres unmarked) [Example 629, 6-((3-ethoxypiperidin-1-yl)methyl)-2-(3-(3-((4-methyl-4H-1,2,4-triazol-3-yl)methyl)oxetan-3-yl)phenyl)-4-(trifluoromethyl)isoindolin-1-one] | ≥ 7.00 | > 1 | > 7.5 | > 7.5 | > 0.201 | > 7.00 | 1.51 to 1.75 | 1.51 to 1.75 | – | – | – | – | – | – | – | – | – | – |
| Cn1cnnc1CC1(c2cccc(N3Cc4c(cc(C(N5CCCC5)C(F)(F)F)cc4C(F)(F)F)C3=O)c2)COC1 (centres unmarked) [Example 581, 2-(3-(3-((4-Methyl-4H-1,2,4-triazol-3-yl)methyl)oxetan-3-yl)phenyl)-6-(2,2,2-trifluoro-1-(pyrrolidin-1-yl)ethyl)-4-(trifluoromethyl)isoindolin-1-one] | ≥ 7.00 | 0.801 to 1 | 1.01 to 2.5 | 2.51 to 5 | 0.051 to 0.1 | > 7.00 | 1.01 to 1.3 | 1.31 to 1.5 | – | – | – | – | – | – | – | – | – | – |
| Cc1c[nH]nc1C[C@H](C)c1cccc(N2Cc3c(cccc3C(F)(F)F)C2=O)c1 (single isomer, unassigned) [Compound 270a] | ≥ 6.00 | – | – | – | – | 6.00 to 6.52 | – | – | 0.601 to 0.8 | 0.801 to 1 | 1.01 to 2.5 | 1.01 to 2.5 | 1.01 to 2.5 | 0.101 to 0.15 | 0.151 to 0.2 | 1.01 to 1.3 | 1.01 to 1.3 | 1.01 to 1.3 |
| Cn1cnnc1[C@@H](F)C1(c2cccc(N3Cc4c(cc(CN5CCCCC5)cc4C(F)(F)F)C3=O)c2)COC1 [Example 674a, (S)-2-(3-(3-(fluoro(4-methyl-4H-1,2,4-triazol-3-yl)methyl)oxetan-3-yl)phenyl)-6-(piperidin-1-ylmethyl)-4-(trifluoromethyl)isoindolin-1-one] | ≥ 7.00 | > 1 | > 7.5 | > 7.5 | 0.101 to 0.15 | > 7.00 | 1.31 to 1.5 | 1.51 to 1.75 | – | – | – | – | – | – | – | – | – | – |
| Cc1cc(C(=O)Nc2cccc(C3(Cc4nncn4C)COC3)c2)nc(C(F)(F)F)n1 [Compound 338, 6-methyl-N-(3-(3-((4-methyl-4H-1,2,4-triazol-3-yl)methyl)oxetan-3-yl)phenyl)-2-(trifluoromethyl)pyrimidine-4-carboxamide] | ≥ 7.00 | – | – | – | – | > 7.00 | – | – | 0.801 to 1 | > 1 | 1.01 to 2.5 | 2.51 to 5 | > 7.5 | 0.101 to 0.15 | > 0.201 | 1.01 to 1.3 | 1.01 to 1.3 | 1.01 to 1.3 |
| COc1ccc2c(c1)CN(Cc1cc3c(c(C(F)(F)F)c1)CN(c1cccc(C4(Cc5nncn5C)COC4)c1)C3=O)C2 [Example 656, 6-((5-methoxyisoindolin-2-yl)methyl)-2-(3-(3-((4-methyl-4H-1,2,4-triazol-3-yl)methyl)oxetan-3-yl)phenyl)-4-(trifluoromethyl)isoindolin-1-one] | ≥ 7.00 | > 1 | > 7.5 | > 7.5 | > 0.201 | > 7.00 | 1.31 to 1.5 | 1.31 to 1.5 | – | – | – | – | – | – | – | – | – | – |
| C[C@@H]1CCN(Cc2cc3c(c(C(F)(F)F)c2)CN(c2cccc(C4(Cc5nncn5C)COC4)c2)C3=O)C[C@H]1F (relative stereo) [Example 631, 6-((trans-3-fluoro-4-methylpiperidin-1-yl)methyl)-2-(3-(3-((4-methyl-4H-1,2,4-triazol-3-yl)methyl)oxetan-3-yl)phenyl)-4-(trifluoromethyl)isoindolin-1-one] | ≥ 7.00 | > 1 | > 7.5 | > 7.5 | > 0.201 | > 7.00 | 1.31 to 1.5 | 1.51 to 1.75 | – | – | – | – | – | – | – | – | – | – |
| Cn1cnnc1C(F)(F)C1(c2cccc(N3Cc4c(cc(CN5CC(F)C5)cc4C(F)(F)F)C3=O)c2)COC1 [Example 679, 2-(3-(3-(difluoro(4-methyl-4H-1,2,4-triazol-3-yl)methyl)oxetan-3-yl)phenyl)-6-((3-fluoroazetidin-1-yl)methyl)-4-(trifluoromethyl)isoindolin-1-one] | ≥ 7.00 | > 1 | 2.51 to 5 | 5 to 7.5 | 0.101 to 0.15 | > 7.00 | 1.01 to 1.3 | 1.01 to 1.3 | – | – | – | – | – | – | – | – | – | – |
